This assay addresses human PAD4 (hPAD4) (Homo sapiens, UniProt Q9UM07). Briefly: RFMS Human PAD4 Functional Assay. Format: biochemical. To be noted: 5 nM hPAD4, 250 μM BAEE. In short, it runs like this: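 RapidFire ESI-MS quantification, normalised to a modified-citrulline internal standard, after phenyl glyoxal (final 4 mM) derivatisation of the TCA-quenched reaction. The enzyme (10 nM) sat 30 min with compound (up to 50 μM final) before 500 μM BAEE (as added) started a 90 min, 37 °C reaction. Buffer: HEPES pH 7.5, 50 μM calcium, 5 μM TPEN.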

The mark [1] stands for this setting: hPAD4 RFMS IC50, human PAD4, rapid-fire mass spectrum (RFMS) assay.
Where [2] appears, read: human PAD4, rapid-fire mass spectrum (RFMS) assay, read-out: hPAD4 RFMS IC50.

Like-named read-outs stand apart in the source and are kept apart here.

The IC50 is the concentration needed to halve the response being measured.

human PAD4 (hPAD4), sequence (Q9UM07 whole entry): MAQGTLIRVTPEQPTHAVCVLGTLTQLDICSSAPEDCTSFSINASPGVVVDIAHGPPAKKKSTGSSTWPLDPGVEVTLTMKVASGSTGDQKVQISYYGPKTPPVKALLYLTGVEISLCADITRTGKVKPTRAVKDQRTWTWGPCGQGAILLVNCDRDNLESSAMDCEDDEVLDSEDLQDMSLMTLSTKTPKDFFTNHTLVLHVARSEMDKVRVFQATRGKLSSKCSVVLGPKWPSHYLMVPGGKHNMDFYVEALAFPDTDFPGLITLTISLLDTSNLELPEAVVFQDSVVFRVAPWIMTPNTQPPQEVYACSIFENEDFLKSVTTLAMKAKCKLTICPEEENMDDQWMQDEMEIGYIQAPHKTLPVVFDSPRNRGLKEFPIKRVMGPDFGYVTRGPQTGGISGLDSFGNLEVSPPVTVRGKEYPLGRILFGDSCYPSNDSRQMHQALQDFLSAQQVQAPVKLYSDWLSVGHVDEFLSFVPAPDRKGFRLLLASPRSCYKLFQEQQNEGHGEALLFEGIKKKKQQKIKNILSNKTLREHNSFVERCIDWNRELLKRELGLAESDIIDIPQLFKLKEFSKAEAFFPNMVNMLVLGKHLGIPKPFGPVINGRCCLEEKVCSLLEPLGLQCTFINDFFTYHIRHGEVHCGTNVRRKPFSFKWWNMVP

With `COc1cc(C(=O)N2C[C@H](N)C[C@@H](F)C2)cc2nc(-c3cc4cccc(-c5ccc(O)c(F)c5)c4n3CC3CC3)n(C)c12` [Example 206, ((3R,5R)-3-amino-5-fluoropiperidin-1-yl)(2-(1-(cyclopropylmethyl)-7-(3-fluoro-4-hydroxyphenyl)-1H-indol-2-yl)-7-methoxy-1-methyl-1H-benzo[d]imidazol-5-yl)methanone], inhibition under setting [1] was half-maximal at 145 nM (IC50).

Consider `COc1cc(C(=O)N2C[C@H]3CC[C@@H]2[C@@H]3N)cc2nc(-c3cc4cccc(-c5ccccc5CO)c4n3CC3CC3)n(C)c12` [Example 181, ((1R,4R,7R)-7-amino-2-azabicyclo[2.2.1]heptan-2-yl)(2-(1-(cyclopropylmethyl)-7-(2-(hydroxymethyl)phenyl)-1H-indol-2-yl)-7-methoxy-1-methyl-1H-benzo[d]imidazol-5-yl)methanone], for which the IC50 under setting [2] came to 127 nM.

Regarding `COc1cc(C(=O)N2C[C@H]3CC[C@@H]2[C@@H]3N)cc2nc(-c3cc4cccc(C5CCC(N)CC5)c4n3CC3CC3)n(C)c12` (stereo partly drawn) [Example 13, (1R,4R,7R)-2-{2-[7-(4-aminocyclohexyl)-1-(cyclopropylmethyl)-1H-indol-2-yl]-7-methoxy-1-methyl-1H-1,3-benzodiazole-5-carbonyl}-2-azabicyclo[2.2.1]heptan-7-amine], the IC50 under setting [1] stood at 16 nM.

In turn, `COc1cc(C(=O)N2C[C@H]3CC[C@@H]2[C@@H]3N)cc2nc(-c3cc4cccc(-c5ccc(O)nc5)c4n3CC3CC3)n(C)c12` [Example 197, ((1R,4R,7R)-7-amino-2-azabicyclo[2.2.1]heptan-2-yl)(2-(1-(cyclopropylmethyl)-7-(6-hydroxypyridin-3-yl)-1H-indol-2-yl)-7-methoxy-1-methyl-1H-benzo[d]imidazol-5-yl)methanone] displayed an IC50 under setting [1] of 120 nM.

On to `COc1ccc(NC(=O)N2CCC(c3cccc4cc(-c5nc6cc(C(=O)N7C[C@H]8CC[C@@H]7[C@@H]8N)cc(OC)c6n5C)n(CC5CC5)c34)CC2)cc1` [Example 246, 4-(2-(5-((1R,4R,7R)-7-amino-2-azabicyclo[2.2.1]heptane-2-carbonyl)-7-methoxy-1-methyl-1H-benzo[d]imidazol-2-yl)-1-(cyclopropylmethyl)-1H-indol-7-yl)-N-(4-methoxyphenyl)piperi-dine-1-carboxamide], for which the midpoint of inhibition under setting [1], the IC50, lay at 6 nM.

On to `COc1ccccc1NC(=O)N1CCC(c2cccc3cc(-c4nc5cc(C(=O)N6C[C@H]7CC[C@@H]6[C@@H]7N)cc(OC)c5n4C)n(CC4CC4)c23)CC1` [Example 247, 4-(2-(5-((1R,4R,7R)-7-amino-2-azabicyclo[2.2.1]heptane-2-carbonyl)-7-methoxy-1-methyl-1H-benzo[d]imidazol-2-yl)-1-(cyclopropylmethyl)-1H-indol-7-yl)-N-(2-methoxyphenyl)piperi-dine-1-carboxamide], for which the IC50 under setting [1] worked out at 9 nM.

`COc1cc(C(=O)N2C[C@H]3CC[C@@H]2[C@@H]3N)cc2nc(-c3cc4cccc(C5CC(C(=O)N6CC[C@@H](O)C6)C5)c4n3CC3CC3)n(C)c12` (single isomer, unassigned) [Example 51]: under setting [1], the IC50 amounted to 48 nM.

`COc1cc(C(=O)N2C[C@H]3CC[C@@H]2[C@@H]3N)cc2nc(-c3cc4cccc(C5CCN(C(=O)Nc6ccncc6)CC5)c4n3CC3CC3)n(C)c12` [Example 245, 4-(2-(5-((1R,4R,7R)-7-amino-2-azabicyclo[2.2.1]heptane-2-carbonyl)-7-methoxy-1-methyl-1H-benzo[d]imidazol-2-yl)-1-(cyclopropylmethyl)-1H-indol-7-yl)-N-(pyridin-4-yl)piperidine-1-carboxamide] gave an IC50 under setting [1] of 13 nM.

Turning to `COC(=O)N1CCC(c2cccc3cc(-c4nc5cc(C(=O)N6C[C@H]7CC[C@@H]6[C@@H]7N)cc(OC)c5n4C)n(CC4CC4)c23)CC1` [Example 217, methyl 4-(2-(5-((1R,4R,7R)-7-amino-2-azabicyclo[2.2.1]heptane-2-carbonyl)-7-methoxy-1-methyl-1H-benzo[d]imidazol-2-yl)-1-(cyclopropylmethyl)-1H-indol-7-yl)piperidine-1-carboxylate], 27 nM corresponded to half-maximal inhibition under setting [1] (IC50).

Consider `COc1cc(C(=O)N2C[C@H]3CC[C@@H]2[C@@H]3N)cc2nc(-c3cc4cccc(C5CCN(C(=O)C(C)OC)CC5)c4n3CC3CC3)n(C)c12` (stereo partly drawn) [Example 238, 1-(4-(2-(5-((1R,4R,7R)-7-amino-2-azabicyclo[2.2.1]heptane-2-carbonyl)-7-methoxy-1-methyl-1H-benzo[d]imidazol-2-yl)-1-(cyclopropylmethyl)-1H-indol-7-yl)piperidin-1-yl)-2-methoxypropan-1-one], for which the IC50 under setting [1] is 104 nM.

In turn, `COc1cc(C(=O)N2C[C@H]3CC[C@@H]2[C@@H]3N)cc2nc(-c3cc4cccc(C5CN(C(=O)CC#N)C5)c4n3CC3CC3)n(C)c12` [Example 77, 3-[3-(2-{5-[(1R,4R,7R)-7-amino-2-azabicyclo[2.2.1]heptane-2-carbonyl]-7-methoxy-1-methyl-1H-1,3-benzodiazol-2-yl}-1-(cyclopropylmethyl)-1H-indol-7-yl)azetidin-1-yl]-3-oxopropanenitrile] registered an IC50 under setting [1] of 38 nM.

Under setting [1], `COc1cc(C(=O)N2C[C@H]3CC[C@@H]2[C@@H]3N)cc2nc(-c3cc4cccc(-c5cccs5)c4n3CC3CC3)n(C)c12` [Example 131, ((1R,4R,7R)-7-amino-2-azabicyclo[2.2.1]heptan-2-yl)(2-(1-(cyclopropylmethyl)-7-(thiophen-2-yl)-1H-indol-2-yl)-7-methoxy-1-methyl-1H-benzo[d]imidazol-5-yl)methanone] showed an IC50 of 156 nM.

Consider `COc1cc(C(=O)N2C[C@H]3CC[C@@H]2[C@@H]3N)cc2nc(-c3cc4cccc(-c5cc[nH]n5)c4n3CC3CC3)n(C)c12` [Example 127, ((1R,4R,7R)-7-amino-2-azabicyclo[2.2.1]heptan-2-yl)(2-(1-(cyclopropylmethyl)-7-(1H-pyrazol-3-yl)-1H-indol-2-yl)-7-methoxy-1-methyl-1H-benzo[d]imidazol-5-yl)methanone], for which 82 nM corresponded to half-maximal inhibition under setting [1] (IC50).

Turning to `COc1cc(C(=O)N2C[C@H]3CC[C@@H]2[C@@H]3N)cc2nc(-c3cc4cccc(-c5cn(CC(C)(C)O)nc5C)c4n3CC3CC3)n(C)c12` [Example 139, ((1R,4R,7R)-7-amino-2-azabicyclo[2.2.1]heptan-2-yl)(2-(1-(cyclopropylmethyl)-7-(1-(2-hydroxy-2-methylpropyl)-3-methyl-1H-pyrazol-4-yl)-1H-indol-2-yl)-7-methoxy-1-methyl-1H-benzo[d]imidazol-5-yl)methanone], the midpoint of inhibition under setting [1], the IC50, lay at 180 nM.

For `COC(=O)N1CC(c2cccc3cc(-c4nc5cc(C(=O)N6C[C@H]7CC[C@@H]6[C@@H]7N)cc(OC)c5n4C)n(CC4CC4)c23)C1` [Example 40, Methyl 3-(2-(5-((1R,4R,7R)-7-amino-2-azabicyclo[2.2.1]heptane-2-carbonyl)-7-methoxy-1-methyl-1H-benzo[d]imidazol-2-yl)-1-(cyclopropylmethyl)-1H-indol-7-yl)azetidine-1-carboxylate], the IC50 under setting [2] was 21 nM.

In the case of `COc1cc(C(=O)N2C[C@H]3CC[C@@H]2[C@@H]3N)cc2nc(-c3cc4cccc(C5CN(C(=O)CN)C5)c4n3CC3CC3)n(C)c12` [Example 65, 2-amino-1-[3-(2-{5-[(1R,4R,7R)-7-amino-2-azabicyclo[2.2.1]heptane-2-carbonyl]-7-methoxy-1-methyl-1H-1,3-benzodiazol-2-yl}-1-(cyclopropylmethyl)-1H-indol-7-yl)azetidin-1-yl]ethan-1-one], under setting [2], the IC50 amounted to 24 nM.

In turn, `COc1cc(C(=O)N2C[C@H]3CC[C@@H]2[C@@H]3N)cc2nc(-c3cc4cccc(-c5ccc6c(c5)CC(=O)N6)c4n3CC3CC3)n(C)c12` [Example 97, 2′-{5-[(1R,4R,7R)-7-amino-2-azabicyclo[2.2.1]heptane-2-carbonyl]-7-methoxy-1-methyl-1H-1,3-benzodiazol-2-yl}-1′-(cyclopropylmethyl)-2,3-dihydro-1H,1′H-[5,7′-biindole]-2-one] returned an IC50 under setting [1] of 23 nM.

As for `COc1cc(C(=O)N2C[C@H]3CC[C@@H]2[C@@H]3N)cc2nc(-c3cc4cccc(C5CN(C(C)=O)C5)c4n3CC3CC3)n(Cc3cnn(C)c3)c12` [Example 210, 1-(3-(2-(5-((1R,4R,7R)-7-amino-2-azabicyclo[2.2.1]heptane-2-carbonyl)-7-methoxy-1-((1-methyl-1H-pyrazol-4-yl)methyl)-1H-benzo[d]imidazol-2-yl)-1-(cyclopropylmethyl)-1H-indol-7-yl)azetidin-1-yl)ethan-1-one], under setting [1], the half-inhibitory concentration (IC50) was 18 nM.

Regarding `COc1cc(C(=O)N2C[C@H]3CC[C@@H]2[C@@H]3N)cc2nc(-c3cc4cccc(C5CN(C(C)=O)C5)c4n3CC3CC3)n(C)c12` [Example 37, 1-(3-(2-(5-((1R,4R,7R)-7-amino-2-azabicyclo[2.2.1]heptane-2-carbonyl)-7-methoxy-1-methyl-1H-benzo[d]imidazol-2-yl)-1-(cyclopropylmethyl)-1H-indol-7-yl)azetidin-1-yl)ethan-1-one], the IC50 under setting [2] worked out at 26 nM.

In turn, `COC(=O)N1CC(c2cccc3cc(-c4nc5cc(C(=O)N6C[C@H]7CC[C@@H]6[C@@H]7N)cc(OC)c5n4Cc4cnn(C)c4)n(C)c23)C1` [Example 216, methyl 3-(2-(5-((1R,4R,7R)-7-amino-2-azabicyclo[2.2.1]heptane-2-carbonyl)-7-methoxy-1-((1-methyl-1H-pyrazol-4-yl)methyl)-1H-benzo[d]imidazol-2-yl)-1-methyl-1H-indol-7-yl)azetidine-1-carboxylate] had an IC50 under setting [1] of 101 nM.

Take `COc1cc(C(=O)N2C[C@H](N)C[C@@H](F)C2)cc2nc(-c3cc4cccc(C5CC(C(N)=O)C5)c4n3CC3CC3)n(C)c12` (single isomer, unassigned) [Example 114]: it took 81 nM to reach half-maximal inhibition under setting [1] (IC50).

For the origin of these results see patent US20220402950A1, “SUBSTITUTED BENZIMIDAZOLES AS PAD4 INHIBITORS” (BRISTOL-MYERS SQUIBB COMPANY, priority 2018, published 2022).
